Experimental data published in ChEMBL document CHEMBL5338745, “Factor XIa Inhibitors in Anticoagulation Therapy: Recent Advances and Perspectives” (J Med Chem, 2023).

How the values were obtained:
Coagulation factor XI = Coagulation factor XI (Homo sapiens, UniProt P03951); assay: Inhibition of FXIa (unknown origin)
Cathepsin G = biological target: T1, Cathepsin G (Homo sapiens, UniProt P08311); assay: Inhibition of human cathepsin G
T1 sequence (P08311 whole entry): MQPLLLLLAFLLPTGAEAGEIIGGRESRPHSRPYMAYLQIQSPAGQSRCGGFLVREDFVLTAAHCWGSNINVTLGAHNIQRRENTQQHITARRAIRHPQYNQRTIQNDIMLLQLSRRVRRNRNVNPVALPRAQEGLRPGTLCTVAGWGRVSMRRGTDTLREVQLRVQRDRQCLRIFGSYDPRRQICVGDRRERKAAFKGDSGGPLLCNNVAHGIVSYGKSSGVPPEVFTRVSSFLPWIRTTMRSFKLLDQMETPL

Neutrophil elastase = biological target: T2, Neutrophil elastase (Homo sapiens, UniProt P08246); assay: Inhibition of human Neutrophil elastase
T2 sequence (P08246 whole entry): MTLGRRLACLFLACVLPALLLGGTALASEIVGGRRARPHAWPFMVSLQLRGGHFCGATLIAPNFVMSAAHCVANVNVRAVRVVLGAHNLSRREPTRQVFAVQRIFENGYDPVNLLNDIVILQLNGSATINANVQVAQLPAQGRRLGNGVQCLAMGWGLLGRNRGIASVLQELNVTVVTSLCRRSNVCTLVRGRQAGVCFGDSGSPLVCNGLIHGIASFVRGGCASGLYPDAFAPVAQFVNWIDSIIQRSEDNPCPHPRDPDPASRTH

Prothrombin = Prothrombin (Homo sapiens, UniProt P00734); assay: Inhibition of human thrombin
Trypsin = Trypsin (Homo sapiens, UniProt P07477+P07478+P35030); assay: Inhibition of human trypsin; type: protein assay
Plasminogen = Plasminogen (Homo sapiens, UniProt P00747); assay: Inhibition of human plasmin
Coagulation factor XII = biological target: T3, Coagulation factor XII (Homo sapiens, UniProt P00748); assay: Inhibition of human FXIIa
T3 sequence (P00748 whole entry): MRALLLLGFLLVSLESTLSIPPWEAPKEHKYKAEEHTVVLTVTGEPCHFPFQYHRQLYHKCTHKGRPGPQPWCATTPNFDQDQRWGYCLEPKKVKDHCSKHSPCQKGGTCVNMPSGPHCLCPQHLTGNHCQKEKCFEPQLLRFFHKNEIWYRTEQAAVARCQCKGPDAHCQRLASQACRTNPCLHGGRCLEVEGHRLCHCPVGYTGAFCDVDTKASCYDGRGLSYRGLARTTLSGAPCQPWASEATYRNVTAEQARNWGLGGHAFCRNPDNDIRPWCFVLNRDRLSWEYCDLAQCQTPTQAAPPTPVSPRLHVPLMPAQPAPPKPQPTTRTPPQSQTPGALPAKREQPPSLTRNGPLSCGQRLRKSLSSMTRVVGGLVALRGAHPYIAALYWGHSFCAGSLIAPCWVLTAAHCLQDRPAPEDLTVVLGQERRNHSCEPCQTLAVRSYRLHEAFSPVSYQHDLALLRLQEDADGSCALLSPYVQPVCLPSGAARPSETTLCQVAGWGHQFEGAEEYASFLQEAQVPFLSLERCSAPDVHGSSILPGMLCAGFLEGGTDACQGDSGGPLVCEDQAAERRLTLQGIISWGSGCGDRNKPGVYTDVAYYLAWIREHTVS

Coagulation factor X = Coagulation factor X (Homo sapiens, UniProt P00742); assay: Inhibition of human FXa
Coagulation factor VII = biological target: T4, Coagulation factor VII (Homo sapiens, UniProt P08709); assay: Inhibition of human FVIIa
T4 sequence (P08709 whole entry): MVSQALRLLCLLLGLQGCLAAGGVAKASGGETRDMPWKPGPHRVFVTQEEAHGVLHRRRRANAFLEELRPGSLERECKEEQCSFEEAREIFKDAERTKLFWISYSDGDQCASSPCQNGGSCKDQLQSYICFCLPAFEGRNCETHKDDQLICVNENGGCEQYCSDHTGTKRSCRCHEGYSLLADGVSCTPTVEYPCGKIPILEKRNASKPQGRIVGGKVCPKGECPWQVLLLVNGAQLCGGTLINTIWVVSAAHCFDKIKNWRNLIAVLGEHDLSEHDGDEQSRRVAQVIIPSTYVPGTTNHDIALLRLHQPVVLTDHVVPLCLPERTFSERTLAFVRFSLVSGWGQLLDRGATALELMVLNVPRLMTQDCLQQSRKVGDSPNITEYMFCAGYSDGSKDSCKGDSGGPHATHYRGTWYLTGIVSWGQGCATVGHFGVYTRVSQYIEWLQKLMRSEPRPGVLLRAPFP

Chymotrypsin = Chymotrypsin (Homo sapiens, UniProt Q99895+P17538+P40313+Q6GPI1); assay: Inhibition of human chymotrypsin; type: protein assay

Chain of Coagulation factor XI (P03951 19-387 limits assumed): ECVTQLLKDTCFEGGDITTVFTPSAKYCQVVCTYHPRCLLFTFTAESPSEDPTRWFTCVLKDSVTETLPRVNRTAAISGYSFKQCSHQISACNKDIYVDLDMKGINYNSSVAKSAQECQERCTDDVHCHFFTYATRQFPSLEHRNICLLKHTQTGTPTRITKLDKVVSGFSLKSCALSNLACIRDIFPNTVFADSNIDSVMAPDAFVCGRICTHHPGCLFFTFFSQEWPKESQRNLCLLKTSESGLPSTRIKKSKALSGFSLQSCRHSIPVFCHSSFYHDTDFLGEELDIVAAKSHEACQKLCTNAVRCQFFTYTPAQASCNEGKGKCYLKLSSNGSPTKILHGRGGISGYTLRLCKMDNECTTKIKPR
Chain of Coagulation factor XI (P03951 388-625 limits assumed): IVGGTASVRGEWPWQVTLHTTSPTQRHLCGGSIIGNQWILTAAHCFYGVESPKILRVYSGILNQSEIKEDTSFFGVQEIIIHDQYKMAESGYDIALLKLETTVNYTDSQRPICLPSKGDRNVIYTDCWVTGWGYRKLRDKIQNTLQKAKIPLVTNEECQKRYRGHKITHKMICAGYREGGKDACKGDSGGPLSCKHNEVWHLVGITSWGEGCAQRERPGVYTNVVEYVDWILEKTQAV
Chain of Coagulation factor X (P00742 41-179 limits assumed): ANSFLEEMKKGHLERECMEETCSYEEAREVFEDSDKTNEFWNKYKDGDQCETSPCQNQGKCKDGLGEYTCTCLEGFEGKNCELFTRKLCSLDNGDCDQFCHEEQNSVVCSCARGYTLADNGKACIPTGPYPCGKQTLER
Chain of Coagulation factor X (P00742 235-488 limits assumed): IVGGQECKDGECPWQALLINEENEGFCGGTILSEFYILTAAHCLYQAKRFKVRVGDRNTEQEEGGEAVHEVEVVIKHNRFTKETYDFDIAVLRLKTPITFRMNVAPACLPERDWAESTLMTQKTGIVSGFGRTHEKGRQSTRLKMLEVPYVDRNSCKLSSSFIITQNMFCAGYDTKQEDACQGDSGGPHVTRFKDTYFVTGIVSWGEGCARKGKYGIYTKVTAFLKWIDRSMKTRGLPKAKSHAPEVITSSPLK
Chain of Plasminogen (P00747 97-580 limits assumed): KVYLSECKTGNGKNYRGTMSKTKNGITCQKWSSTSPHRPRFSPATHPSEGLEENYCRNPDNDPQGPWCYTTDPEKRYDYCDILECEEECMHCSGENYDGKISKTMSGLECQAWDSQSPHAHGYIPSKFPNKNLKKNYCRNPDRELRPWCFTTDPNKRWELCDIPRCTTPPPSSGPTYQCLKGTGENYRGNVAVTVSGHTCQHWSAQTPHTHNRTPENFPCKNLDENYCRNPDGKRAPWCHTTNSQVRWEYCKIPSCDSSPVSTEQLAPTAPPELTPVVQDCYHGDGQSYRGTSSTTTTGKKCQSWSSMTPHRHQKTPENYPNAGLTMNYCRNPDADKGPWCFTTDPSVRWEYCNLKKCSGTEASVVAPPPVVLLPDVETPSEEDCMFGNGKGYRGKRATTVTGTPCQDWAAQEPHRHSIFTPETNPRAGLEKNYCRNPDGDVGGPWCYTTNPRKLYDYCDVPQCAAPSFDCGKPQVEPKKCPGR
Chain of Plasminogen (P00747 581-810 limits assumed): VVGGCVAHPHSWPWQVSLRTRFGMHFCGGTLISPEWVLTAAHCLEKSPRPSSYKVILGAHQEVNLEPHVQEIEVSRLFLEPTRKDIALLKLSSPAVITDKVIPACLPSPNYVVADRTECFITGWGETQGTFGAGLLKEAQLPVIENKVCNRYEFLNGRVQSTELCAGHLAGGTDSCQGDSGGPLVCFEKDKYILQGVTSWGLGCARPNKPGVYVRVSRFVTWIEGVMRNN

SMILES | IC50 (Coagulation factor XI) [µM] | IC50 (Cathepsin G) [µM] | IC50 (Neutrophil elastase) [µM] | IC50 (Prothrombin) [µM] | IC50 (Trypsin) [µM] | IC50 (Plasminogen) [µM] | IC50 (Coagulation factor XII) [µM] | IC50 (Coagulation factor X) [µM] | IC50 (Coagulation factor VII) [µM] | IC50 (Chymotrypsin) [µM]
O=C(Nc1ccc(C(=O)Nc2ccc(C(=O)Nc3ccc(OS(=O)(=O)O)c4cc(OS(=O)(=O)O)cc(OS(=O)(=O)O)c34)cc2)cc1)Nc1ccc(C(=O)Nc2ccc(C(=O)Nc3ccc(OS(=O)(=O)O)c4cc(OS(=O)(=O)O)cc(OS(=O)(=O)O)c34)cc2)cc1 | 4.6 | 0.57 | 0.22 |  |  |  |  |  |  | 
O=C(O[C@H]1[C@H](OC(=O)c2cc(OS(=O)(=O)[O-])cc(OS(=O)(=O)[O-])c2)[C@H](OC(=O)c2cc(OS(=O)(=O)[O-])cc(OS(=O)(=O)[O-])c2)[C@@H](OC(=O)c2cc(OS(=O)(=O)[O-])cc(OS(=O)(=O)[O-])c2)[C@H](OC(=O)c2cc(OS(=O)(=O)[O-])cc(OS(=O)(=O)[O-])c2)[C@H]1OC(=O)c1cc(OS(=O)(=O)[O-])cc(OS(=O)(=O)[O-])c1)c1cc(OS(=O)(=O)[O-])cc(OS(=O)(=O)[O-])c1.[Na+].[Na+].[Na+].[Na+].[Na+].[Na+].[Na+].[Na+].[Na+].[Na+].[Na+].[Na+] | 0.28 |  |  | > 40 | > 40 | > 40 | > 40 | > 40 | > 40 | > 40
